Measurements reported in PubChem BioAssay AID330 (DTP/NCI, 2004).
Toxic doses and inconclusive results are not listed.

Test system: P388 leukemia ip, CD2F1 mice, survival T/C
Experiment: NCI In Vivo Anticancer Drug Screen. Data for tumor model P388 Leukemia (intraperitoneal) in CD2F1 (CDF1) mice
Conditions: endpoint: median survival time, higher = longer survival
Procedure, shortened: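 Mice carrying the transplanted tumor received test compound or vehicle. Survival was recorded in each group, and the value is the treated-group measurement divided by that of the vehicle-treated control group.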

[1] = dose: 50.0 mg/kg/injection, schedule: Q01DX005 (ip), vehicle: saline with Tween-80
[2] = dose: 100.0 mg/kg/injection, schedule: Q01DX005 (ip), vehicle: saline with Tween-80
[3] = dose: 200.0 mg/kg/injection, schedule: Q01DX005 (ip), vehicle: saline with Tween-80
[4] = dose: 50.0 mg/kg/injection, schedule: Q01DX009 (ip), vehicle: saline with Tween-80
[5] = dose: 100.0 mg/kg/injection, schedule: Q01DX009 (ip), vehicle: saline with Tween-80
[6] = dose: 200.0 mg/kg/injection, schedule: Q01DX009 (ip), vehicle: saline with Tween-80
[7] = dose: 6.25 mg/kg/injection, schedule: Q01DX009 (ip), vehicle: saline with Tween-80
[8] = dose: 12.5 mg/kg/injection, schedule: Q01DX009 (ip), vehicle: saline with Tween-80
[9] = dose: 25.0 mg/kg/injection, schedule: Q01DX009 (ip), vehicle: saline with Tween-80
[10] = dose: 60.0 mg/kg/injection, schedule: Q01DX005 (ip), vehicle: saline with Tween-80
[11] = dose: 120.0 mg/kg/injection, schedule: Q01DX005 (ip), vehicle: saline with Tween-80
[12] = dose: 240.0 mg/kg/injection, schedule: Q01DX005 (ip), vehicle: saline with Tween-80
[13] = dose: 100.0 mg/kg/injection, schedule: Q04DX002 (ip), vehicle: saline with Tween-80
[14] = dose: 200.0 mg/kg/injection, schedule: Q04DX002 (ip), vehicle: saline with Tween-80
[15] = dose: 400.0 mg/kg/injection, schedule: Q04DX002 (ip), vehicle: saline with Tween-80

## CCC#CCC1(CC#CCC)CC1C (configuration not stated)
[1]
  T/C: 100 % of control
[2]
  T/C: 99 % of control
[3]
  T/C: 107 % of control

## C=CCNc1nnc(-c2ccccc2)s1
[4]
  T/C: 103 % of control
[5]
  T/C: 100 % of control
[6]
  T/C: 100 % of control

## [Se]c1nc(N2CCOCC2)ncc1-c1ccccc1
[7]
  T/C: 100 % of control
[8]
  T/C: 95 % of control
[9]
  T/C: 95 % of control
[6]
  T/C: 92 % of control

## CC(=O)Nc1cccc2[nH]c3ccccc3c(=O)c12
[1]
  T/C: 95 % of control
[2]
  T/C: 103 % of control
[3]
  T/C: 93 % of control

## NC(C(=O)O)C(C(F)(F)F)C(F)(F)F (configuration not stated)
dose: 50.0 mg/kg/injection, schedule: Q01DX009 (ip), vehicle: saline
  T/C: 101 % of control
dose: 100.0 mg/kg/injection, schedule: Q01DX009 (ip), vehicle: saline
  T/C: 102 % of control
dose: 200.0 mg/kg/injection, schedule: Q01DX009 (ip), vehicle: saline
  T/C: 114 % of control

## CCOC(=O)c1[nH]c(C#N)c(C(=O)OCC)c1C
[5]
  T/C: 86 % of control
[6]
  T/C: 96 % of control
dose: 400.0 mg/kg/injection, schedule: Q01DX009 (ip), vehicle: saline with Tween-80
  T/C: 105 % of control

## ONC(=Nc1cccc2ccccc12)C(=Nc1cccc2ccccc12)NO
dose: 60.0 mg/kg/injection, schedule: Q01DX005 (ip), vehicle: Klucel (hydroxypropylcellulose) (HPC)
  T/C: 99 % of control
dose: 120.0 mg/kg/injection, schedule: Q01DX005 (ip), vehicle: Klucel (hydroxypropylcellulose) (HPC)
  T/C: 102 % of control
dose: 240.0 mg/kg/injection, schedule: Q01DX005 (ip), vehicle: Klucel (hydroxypropylcellulose) (HPC)
  T/C: 103 % of control

## CCc1ccc([O-])c(C=NCCCN(C)CCCN=Cc2cc(C)ccc2[O-])c1.[Co+3].[N-]=[N+]=[N-]
[10]
  T/C: 88 % of control
[11]
  T/C: 91 % of control
[12]
  T/C: 101 % of control

## Nc1cc2nc3ccccc3c(=O)n2[nH]1
dose: 50.0 mg/kg/injection, schedule: Q01DX005 (ip), vehicle: Klucel (hydroxypropylcellulose) (HPC)
  T/C: 98 % of control
dose: 100.0 mg/kg/injection, schedule: Q01DX005 (ip), vehicle: Klucel (hydroxypropylcellulose) (HPC)
  T/C: 91 % of control
dose: 200.0 mg/kg/injection, schedule: Q01DX005 (ip), vehicle: Klucel (hydroxypropylcellulose) (HPC)
  T/C: 86 % of control

## Brc1cc(Br)c(I)c(Br)c1
dose: 100.0 mg/kg/injection, schedule: Q04DX003 (ip), vehicle: other
  T/C: 95 % of control
dose: 200.0 mg/kg/injection, schedule: Q04DX003 (ip), vehicle: other
  T/C: 100 % of control
dose: 400.0 mg/kg/injection, schedule: Q04DX003 (ip), vehicle: other
  T/C: 100 % of control

## CN(Cc1ccco1)NC(=O)C(=O)NCc1ccco1
[1]
  T/C: 97 % of control
[3]
  T/C: 88 % of control

## COc1cc(CNC(=O)CCCC/C=C\C(C)C)ccc1OC(=O)/C=C/c1ccccc1
dose: 1.55 mg/kg/injection, schedule: Q01DX009 (ip), vehicle: Klucel (hydroxypropylcellulose) (HPC)
  T/C: 100 % of control
dose: 3.1 mg/kg/injection, schedule: Q01DX009 (ip), vehicle: Klucel (hydroxypropylcellulose) (HPC)
  T/C: 106 % of control
dose: 6.2 mg/kg/injection, schedule: Q01DX009 (ip), vehicle: Klucel (hydroxypropylcellulose) (HPC)
  T/C: 103 % of control

## Cc1cnc2ccc(O)cc2c1CO
[13]
  T/C: 92 % of control
[14]
  T/C: 94 % of control
[15]
  T/C: 93 % of control

## C1=CC2C1C1OC1C1OC21 (configuration not stated)
[13]
  T/C: 101 % of control
[14]
  T/C: 100 % of control
[15]
  T/C: 101 % of control

## C(=C1CC(=Cc2ccccc2)C1)c1ccccc1
dose: 100.0 mg/kg/injection, schedule: Q01DX001 (ip), vehicle: Klucel (hydroxypropylcellulose) (HPC)
  T/C: 94 % of control
dose: 200.0 mg/kg/injection, schedule: Q01DX001 (ip), vehicle: Klucel (hydroxypropylcellulose) (HPC)
  T/C: 88 % of control
dose: 400.0 mg/kg/injection, schedule: Q01DX001 (ip), vehicle: Klucel (hydroxypropylcellulose) (HPC)
  T/C: 88 % of control

## CN(C)CCCNc1cccc2c1C(=O)c1cccc(NCCCN(C)C)c1C2=O
dose: 4.0 mg/kg/injection, schedule: Q01DX009 (ip), vehicle: acid diluted with saline
  T/C: 105 % of control
dose: 7.5 mg/kg/injection, schedule: Q01DX009 (ip), vehicle: saline
  T/C: 101 % of control
dose: 8.0 mg/kg/injection, schedule: Q01DX009 (ip), vehicle: acid diluted with saline
  T/C: 105 % of control
dose: 12.5 mg/kg/injection, schedule: Q01DX005 (ip), vehicle: water
  T/C: 108 % of control
dose: 12.5 mg/kg/injection, schedule: Q01DX009 (ip), vehicle: water
  T/C: 100 % of control
dose: 15.0 mg/kg/injection, schedule: Q01DX009 (ip), vehicle: saline
  T/C: 108 % of control
dose: 16.0 mg/kg/injection, schedule: Q01DX009 (ip), vehicle: acid diluted with saline
  T/C: 104 % of control
dose: 25.0 mg/kg/injection, schedule: Q01DX005 (ip), vehicle: water
  T/C: 114 % of control
dose: 25.0 mg/kg/injection, schedule: Q01DX009 (ip), vehicle: water
  T/C: 100 % of control
dose: 30.0 mg/kg/injection, schedule: Q01DX009 (ip), vehicle: saline
  T/C: 100 % of control
dose: 32.0 mg/kg/injection, schedule: Q01DX009 (ip), vehicle: acid diluted with saline
  T/C: 104 % of control
dose: 50.0 mg/kg/injection, schedule: Q01DX005 (ip), vehicle: water
  T/C: 102 % of control
dose: 50.0 mg/kg/injection, schedule: Q01DX009 (ip), vehicle: water
  T/C: 100 % of control
dose: 60.0 mg/kg/injection, schedule: Q01DX009 (ip), vehicle: saline
  T/C: 102 % of control
dose: 64.0 mg/kg/injection, schedule: Q01DX009 (ip), vehicle: acid diluted with saline
  T/C: 102 % of control

## O=P1(N(CCCl)CCCl)Nc2cc3ccccc3cc2N1
dose: 3.13 mg/kg/injection, schedule: Q01DX009 (ip), vehicle: saline with Tween-80
  T/C: 103 % of control
[7]
  T/C: 96 % of control
[8]
  T/C: 99 % of control
[9]
  T/C: 100 % of control

## CCCCCCCCCCCCCCCCOc1ccc2c(c1OCCCCCCCCCCCCCCCC)OC(C)(C)C=C2C
[13]
  T/C: 88 % of control
[14]
  T/C: 86 % of control

## CC(=NCCN=C(C)c1ccc(Br)cc1)c1ccc(Br)cc1
[4]
  T/C: 91 % of control
[5]
  T/C: 92 % of control
[6]
  T/C: 91 % of control

## CCCc1c(-c2ccccc2)nc(N)nc1-c1nc(N)nc(-c2ccccc2)c1CCC
dose: 60.0 mg/kg/injection, schedule: Q01DX005 (ip), vehicle: saline
  T/C: 100 % of control
dose: 120.0 mg/kg/injection, schedule: Q01DX005 (ip), vehicle: saline
  T/C: 95 % of control

## CC(C)(C)C1(C#N)C(=O)N(c2ccc(Cl)cc2)C12c1ccccc1-c1ccccc12 (configuration not stated)
dose: 50.0 mg/kg/injection, schedule: Q01DX009 (ip), vehicle: Klucel (hydroxypropylcellulose) (HPC)
  T/C: 99 % of control
dose: 100.0 mg/kg/injection, schedule: Q01DX009 (ip), vehicle: Klucel (hydroxypropylcellulose) (HPC)
  T/C: 118 % of control
dose: 200.0 mg/kg/injection, schedule: Q01DX009 (ip), vehicle: Klucel (hydroxypropylcellulose) (HPC)
  T/C: 105 % of control

## CC1(C=O)CCCC2(C)[C@@H]1CCC13CC(CC[C@H]12)C(C(=O)O)C3 (some centres not stated)
dose: 3.25 mg/kg/injection, schedule: Q01DX005 (ip), vehicle: Klucel (hydroxypropylcellulose) (HPC)
  T/C: 86 % of control
dose: 6.5 mg/kg/injection, schedule: Q01DX005 (ip), vehicle: Klucel (hydroxypropylcellulose) (HPC)
  T/C: 90 % of control
dose: 13.0 mg/kg/injection, schedule: Q01DX005 (ip), vehicle: Klucel (hydroxypropylcellulose) (HPC)
  T/C: 87 % of control

## O=C(OCCCCBr)c1ccccc1
dose: 50.0 mg/kg/injection, schedule: Q01DX009 (ip), vehicle: saline + Tween-80 + alcohol
  T/C: 102 % of control
dose: 100.0 mg/kg/injection, schedule: Q01DX009 (ip), vehicle: saline + Tween-80 + alcohol
  T/C: 97 % of control
dose: 200.0 mg/kg/injection, schedule: Q01DX009 (ip), vehicle: saline + Tween-80 + alcohol
  T/C: 96 % of control
dose: 400.0 mg/kg/injection, schedule: Q01DX009 (ip), vehicle: saline + Tween-80 + alcohol
  T/C: 111 % of control

## c1cc2cc(-c3cc4ccc(C5=NCCN5)cc4[nH]3)[nH]c2cc1C1=NCCN1
dose: 100.0 mg/kg/injection, schedule: Q04DX003 (ip), vehicle: saline
  T/C: 210 % of control
dose: 200.0 mg/kg/injection, schedule: Q04DX003 (ip), vehicle: saline
  T/C: 189 % of control
dose: 400.0 mg/kg/injection, schedule: Q04DX003 (ip), vehicle: saline
  T/C: 159 % of control

## Cc1cc(=O)c(C#N)c(C)o1
[10]
  T/C: 98 % of control
[11]
  T/C: 97 % of control
[12]
  T/C: 90 % of control
